According to PubChem BioAssay AID602210 (Sanford-Burnham Center for Chemical Genomics, 2012):
The source made the active and inactive calls. How the calls were made is not given here.

Experiment: H9c2 cardiomyoblast viability modulators under 2-DG – cell-based, ATPlite luminescence, rat, set 2, myocardial damage modulator project, dose response (AID 602210)
Conditions: H9c2 rat cardiomyoblasts, 2-deoxyglucose-induced death, 2 h

SMILES | IC50
NC(=O)c1nsc(C(=O)N(CCc2ccccc2)C(C(=O)NC2CCCC2)c2ccco2)c1N (centres undefined) | 25.8 µM (inactive)
Cc1ccc(C(=O)Nc2cccc(C(F)(F)F)c2)cc1NC(=O)c1csc(-c2ccncc2)n1 | > 79 µM (inactive)
COc1cc(-c2cc(C(=O)Nc3cccc(C(C)=O)c3)c3ccccc3n2)cc(OC)c1OC | 9.8 µM
COc1ccc(-c2cc3nc(-c4ccccc4)cc(N4CCN(C(=O)c5ccoc5)CC4)n3n2)cc1 | 7.21 µM
CCN(CC(=O)Nc1ccc(OC)cc1)C(=O)c1cc(-c2cccs2)nn1-c1ccccc1 | 7.55 µM
COc1ccc(-c2cc(NC=O)c3ncc(-c4ccccc4)n3c2)cc1OC | > 79 µM (inactive)
CCCn1nc(C(=O)Nc2nc(-c3ccccn3)cs2)c2ccccc2c1=O | 9.03 µM
CC(=O)c1ccc(-c2cnc3c(NC=O)cc(-c4cccc(C(=O)N(C)C)c4)cn23)cc1 | 12.2 µM (inactive)
CCCNC(=O)c1c(N)n(-c2cccc(OC)c2)c2nc3ccccc3nc12 | 14.9 µM (inactive)
Brc1cc2c(cc1/C=N/Nc1nc(N3CCCC3)nc(N3CCOCC3)n1)OCO2 | 16 µM (inactive)
COc1cc(-c2cc3nc(NCCOc4ccccc4)ccn3n2)cc(OC)c1OC | 15.8 µM (inactive)
O=c1cc(-c2cccnc2)oc2c1ccc1ccccc12 | 16.4 µM (inactive)
CC1Cc2ccccc2N1C(=O)c1cc2c(=O)n3ccccc3nc2n1C (centres undefined) | 7.6 µM
CC1Nc2ncnc(N3CCN(c4ccccc4)CC3)c2N(Cc2ccc(Br)cc2)C1=O (centres undefined) | > 79 µM (inactive)
COc1cc2c(C#CCCO)c(-c3ccsc3)oc(=O)c2cc1OC | 6.34 µM
COc1cc(/C=N\NC(=O)c2cccnc2)ccc1OC(=O)c1ccccc1Cl | > 79 µM (inactive)
Cc1cc(NC(=O)c2cccs2)cc(-c2nc3ncccc3o2)c1O | > 79 µM (inactive)
CC(=O)c1cccc(-c2cnc3c(NC=O)cc(-c4ccc(F)cc4)cn23)c1 | > 79 µM (inactive)
N#C/C(=C\Nc1ccc2c(c1)OCCO2)c1nc2ccccc2[nH]1 | 17.3 µM (inactive)
COc1cc(/C=N/NC(=O)c2ccccc2)ccc1OS(=O)(=O)c1ccccc1 | 13.5 µM (inactive)
COc1cc(/C=N/NC(=O)c2cccnc2)ccc1OCC(=O)Nc1ccccc1Cl | 7.84 µM
C[C@@H]1ON(C)[C@H]2C[C@H]3c4[nH]c5ccc(-c6ccc7c(c6)OCO7)cc5c4CCN3C[C@@H]12 | > 79 µM (inactive)

SMILES | IC50
CCOc1ccc2ccccc2c1C(=O)N[C@@H]1C(=O)N2[C@@H]1SC(C)(C)[C@@H]2C(=O)O | 36.1 µM (inactive)
CCOc1ccc2[nH]c(=O)c(CN(Cc3nnnn3Cc3ccco3)C3CCCCC3)cc2c1 | 9.18 µM
O=C(NCC1CCCO1)C(c1ccc(F)cc1)N(C(=O)Cn1nnc(-c2ccc(F)cc2)n1)c1cccc(O)c1 (centres undefined) | 18.3 µM (inactive)
O=C1c2ccccc2C(=O)N1CCCCSc1nc2ccccc2c(=O)n1CCCN1CCOCC1 | > 79 µM (inactive)
CSc1nc2ccc(S(=O)(=O)Nc3c(C)n(C)n(-c4ccccc4)c3=O)cc2s1 | 8.98 µM
NC(=O)c1nsc(C(=O)N(c2ccccc2)C(C(=O)NCc2ccc(F)cc2)c2ccc(O)cc2)c1N (centres undefined) | 9.29 µM
CCOc1ncccc1C(=O)Nc1cccc(-c2nc3cccnc3s2)c1 | 7 µM
O=C(N/N=C\c1ccccn1)c1cccc(C(=O)N/N=C\c2ccccn2)n1 | 10.2 µM (inactive)
CC(=O)Nc1cc(C)nn1-c1nc2ccccc2s1 | > 79 µM (inactive)
O=C(Nc1ccc2nc(N3CCOCC3)sc2c1)c1cc2ccccc2o1 | > 79 µM (inactive)
C=C1C(C)C2C(Cc3ccccc3)NC(=O)C23OC(=O)/C=C/C(O)CCCC(C)C/C=C/C3C1O (centres undefined) | 0.95 µM
CC/C(C)=N\N=C\c1c(O)n(CC)c2cc(C3=NNC(=O)CC3)ccc12 | > 79 µM (inactive)
Cc1ccc(C)c(C(=O)Nc2cc(C)nn2-c2nc(C)cc(C)n2)c1 | 30.1 µM (inactive)
CC(C)N1C(=O)S/C(=C/c2ccc3c(c2)n(C)c(=O)n3C)C1=O | 7.32 µM
C[C@H](CO)N1C[C@H](C)[C@@H](CN(C)C(=O)Nc2ccc3c(c2)OCO3)Oc2c(NC(=O)Nc3ccc(C(F)(F)F)cc3)cccc2C1=O | > 79 µM (inactive)
CC(C)(C)OC(=O)C[C@@H]1C/C=C\C[C@@H](CC(=O)N[C@H](CO)Cc2ccccc2)C(=O)NC[C@@H](c2ccccc2)OC1=O | 64 µM (inactive)
Cc1ccccc1N(C(=O)c1snc(C(N)=O)c1N)C(C(=O)NCc1ccccc1)c1ccc(O)cc1 (centres undefined) | 18 µM (inactive)
COc1ccc2[nH]c(=O)c(CN(CC3CCCO3)S(=O)(=O)c3ccccc3F)cc2c1 (centres undefined) | 19.2 µM (inactive)
NS(=O)(=O)c1ccc(N=Cc2c(O)n(-c3nccs3)c(=O)c3ccccc23)cc1 | 37.2 µM (inactive)
COc1ccc(NC(=O)c2oc3ccc(S(=O)(=O)N4CCOCC4)cc3c2C)cc1 | 15.3 µM (inactive)
Cc1ccc2[nH]c(=O)c(CN(Cc3ccco3)S(=O)(=O)c3c(C)ccc4nsnc34)cc2c1 | 45.3 µM (inactive)
COc1ccc(-c2nn(-c3ccccc3)cc2C(=O)Nc2nccs2)cc1 | 16.4 µM (inactive)

SMILES | IC50
CCOCCn1ccc2c(OCC(=O)Nc3cc(OC)ccc3OC)cccc2c1=O | > 79 µM (inactive)
CNC(=O)c1cccc(NC(=O)c2cc(-c3ccccc3)nc3c2cnn3C(C)C)c1 | 14.3 µM (inactive)
N#Cc1ccccc1S(=O)(=O)N1CCN(c2nc(-c3cccnc3)nc3ccccc23)CC1 | 8.75 µM
COc1cc(/C=N/NC(=O)c2cccnc2)ccc1OS(=O)(=O)c1cc(C)ccc1C | 18.5 µM (inactive)
O=C(Nc1ccc2c(c1)OCO2)c1cnn2c(C(F)(F)F)cc(-c3ccco3)nc12 | > 79 µM (inactive)
O=C(c1ccccc1)c1ccc2nc(N3CCN(C(=O)c4ccco4)CC3)c3nncn3c2c1 | 21.9 µM (inactive)
CCn1c(=O)cc(OCC(=O)Nc2ccccc2C#N)c2ccccc21 | 43.9 µM (inactive)
Cc1nn(-c2ccccc2)c(N2CCCC2)c1/C=N/NC(=O)c1cc(-c2ccccn2)nc2ccccc12 | 12.6 µM (inactive)
COc1cc2c(C#CCCCO)c(-c3ccsc3)oc(=O)c2cc1OC | 5.66 µM
CC(C)CC(C(=O)NC1CCCCC1)N(Cc1cccs1)C(=O)c1snc(C(N)=O)c1N (centres undefined) | 29.3 µM (inactive)
Cc1ncc(CO)c2c1Oc1nc(-c3ccccc3)nc(SCC(=O)N3CCCCC3)c1C2 | > 79 µM (inactive)
COc1cc(-c2cnc3c(NC=O)cc(-c4ccsc4)cn23)cc(OC)c1OC | 6.13 µM
COc1ccc(COc2cc(-c3cccc(OC)c3)nc3ccc(NC(=O)c4cccnc4)cc23)cc1 | 3.51 µM
COc1ccc(-c2cc(NC=O)c3ncc(-c4cccc(C(C)=O)c4)n3c2)cc1 | > 79 µM (inactive)
CCCC(=O)Nc1nc2ccc(NC(=O)c3ccc(Br)o3)cc2s1 | > 79 µM (inactive)
CC(=O)c1ccc(-c2ccc(C(=O)Nc3nc(-c4ccccn4)cs3)o2)cc1 | 5.91 µM
COC(=O)c1ccc(OCC(=O)Nc2ccccc2C(=O)NC2CC2)cc1 | 11.2 µM (inactive)
COC(=O)c1ccc(C(NC(=O)OCc2ccccc2)/C(C)=C/[C@@H](C)C(=O)NCc2ccc(OC)c(OC)c2)cc1 (some centres undefined) | 23.8 µM (inactive)
CCOC(=O)C1CCN(c2cc3c(cc2NC(=O)c2ccc(F)cc2)n(C)c(=O)n3C)CC1 | 28.5 µM (inactive)
Cc1nc(SCC(=O)N2CCN(c3ccccc3)CC2)c2oc3ccccc3c2n1 | 25.8 µM (inactive)
